From US8557847B2, “Synergistic modulation of FLT3 kinase using a FLT3 inhibitor and a farnesyl transferase inhibitor” (Janssen Pharmaceutica, N.V., priority 2005, dated 2013)
Read-outs that look alike come from different tables or passages of the source. Blank lines part the entries; values can stand above or below the compound they belong to.

How the values were obtained:
[1] = test system: MV4-11 AML cells; experiment: 72-hour cell proliferation assay, single agents and FTI/FLT3 inhibitor combinations, MV4-11; format: cell-based; settings: Homo sapiens, IC50 of the FLT3 inhibitor, alone or within the labelled combination, average of three experiments
Experimental: (§1) Dose responses for the individual compounds alone were determined for each cell line using a standard 72-hour cell proliferation assay (see FIGS. 6.1-6.8). The standard chemotherapeutic agent Cytarabine was used as a control cytotoxic agent in all experiments. […] The FLT3 inhibitors, Compounds A, B, C, D, E, F G and H, individually have good potency (sub-micromolar) for the inhibition of FLT3 driven proliferation (compared to the first line cytotoxic agent Cytarabine and Tipifarnib) in cells that depend on FLT3 for growth. Each of these chemically distinct compounds alone has potential for the treatment of disorders related to FLT3, such as FLT3 positive AML. […]
(§2) To statistically evaluate the synergy of a FLT3 inhibitor and an FTI in FLT3 dependent cell lines, dosing combinations were evaluated by the method of Chou and Talalay. See Chou T C, Talalay P. (1984) “Quantitative analysis of dose-effect relationships: the combined effects of multiple drugs or enzyme inhibitors.” Adv Enzyme Regul. […] Using this method, multiple FTI and FLT3 combinations were evaluated. […]
(§3) Cell proliferation assay for MV4-11, Baf3-ITD, Baf3-FLT3 and THP-1 cells. […] Total cell growth is quantified as the difference in luminescent counts (relative light units, RLU) of cell number at Day 0 compared to total cell number at Day 3 (72 hours of growth and/or compound treatment). […]

[2] = test system: MV4-11 tumor xenografts; settings: for inhibition of mean tumor volume compared to vehicle-treated group: Day 11
[3] = test system: MV-4-11 tumor xenografts; experiment: MV-4-11 tumor xenografts, FLT3 inhibitor Compound D administered with Tipifarnib; format: in vivo, nude mice; settings: Compound D 25 mg/kg bid oral, Day 16
From the text: The starting mean tumor volume for each treatment group was approximately 250 mm3.
Dosing was continued for sixteen consecutive days.

[4] = biological target: T1, FLT3 phosphorylation in MV4-11 tumors (Homo sapiens, UniProt P36888, INS600HVDFREYEYD); experiment: FLT3 phosphorylation in MV4-11 tumors, Compound D; format: in vivo, nude mice; settings: tumors harvested 6 hours later
T1 construct: host or cells: MV4-11 human AML cells (in culture, or as xenograft tumors in nude mice)
T1 sequence (P36888 with tags, fused parts or gaps INS600HVDFREYEYD): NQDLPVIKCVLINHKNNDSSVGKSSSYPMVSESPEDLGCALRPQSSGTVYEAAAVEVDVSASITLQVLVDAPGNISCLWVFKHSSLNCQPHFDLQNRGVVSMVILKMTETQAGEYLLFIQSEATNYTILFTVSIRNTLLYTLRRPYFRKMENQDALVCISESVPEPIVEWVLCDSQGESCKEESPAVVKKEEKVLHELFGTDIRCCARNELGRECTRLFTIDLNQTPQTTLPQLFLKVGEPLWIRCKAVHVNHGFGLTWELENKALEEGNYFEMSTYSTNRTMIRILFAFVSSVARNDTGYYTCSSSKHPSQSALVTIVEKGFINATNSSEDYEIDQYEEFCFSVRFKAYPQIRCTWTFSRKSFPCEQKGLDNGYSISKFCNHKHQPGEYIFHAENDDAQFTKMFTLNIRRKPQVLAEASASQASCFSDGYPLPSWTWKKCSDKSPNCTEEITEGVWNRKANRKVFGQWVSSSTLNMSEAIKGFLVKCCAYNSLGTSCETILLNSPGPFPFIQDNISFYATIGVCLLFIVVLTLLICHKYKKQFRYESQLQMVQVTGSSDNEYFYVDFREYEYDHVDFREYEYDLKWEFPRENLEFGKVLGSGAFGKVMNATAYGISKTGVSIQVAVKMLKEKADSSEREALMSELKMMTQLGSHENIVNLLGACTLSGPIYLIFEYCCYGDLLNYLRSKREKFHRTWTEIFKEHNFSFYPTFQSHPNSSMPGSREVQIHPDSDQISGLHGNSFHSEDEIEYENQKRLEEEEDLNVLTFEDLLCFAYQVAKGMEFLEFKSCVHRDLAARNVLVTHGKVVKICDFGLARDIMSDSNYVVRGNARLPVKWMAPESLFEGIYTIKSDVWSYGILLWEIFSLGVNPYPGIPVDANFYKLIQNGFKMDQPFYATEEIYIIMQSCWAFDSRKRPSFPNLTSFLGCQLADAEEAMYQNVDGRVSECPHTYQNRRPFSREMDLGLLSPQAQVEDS
Experimental: Tumors were harvested 6 hours later and snap frozen for assessment of FLT3 phosphorylation by western blots.
Harvested tumors were frozen and processed for immunoblot analysis of FLT3 phosphorylation in the following manner: 200 mg of tumor tissue was dounce homogenized in lysis buffer (50 mM Hepes, 150 mM NaCl, 10% Glycerol, 1% Triton —X-100, 10 mM NaF, 1 mM EDTA, 1.5 mM MgCl2, 10 mM NaPyrophosphate) supplemented with phosphatase (Sigma Cat# P2850) and protease inhibitors (Sigma Cat #P8340). Insoluble debris was removed by centrifugation at 1000×g for 5 minutes at 4° C.
Immunoprecipitated FLT3 from tumor lysates were then washed four times with lysis buffer and separated by SDS-PAGE. […] Blots were then stripped and reprobed with anti-FLT3 antibody for normalization of phosphorylation signals.

[5] = biological target: T2, wild-type FLT3 phosphorylation in Baf3 FLT3 cells (Homo sapiens, UniProt P36888); experiment: Cell-based FLT3 receptor ELISA; settings: uncertainty ±20%
T2 construct: host or cells: Baf3 (murine B cell lymphoma line)
T2 sequence (P36888 27-993): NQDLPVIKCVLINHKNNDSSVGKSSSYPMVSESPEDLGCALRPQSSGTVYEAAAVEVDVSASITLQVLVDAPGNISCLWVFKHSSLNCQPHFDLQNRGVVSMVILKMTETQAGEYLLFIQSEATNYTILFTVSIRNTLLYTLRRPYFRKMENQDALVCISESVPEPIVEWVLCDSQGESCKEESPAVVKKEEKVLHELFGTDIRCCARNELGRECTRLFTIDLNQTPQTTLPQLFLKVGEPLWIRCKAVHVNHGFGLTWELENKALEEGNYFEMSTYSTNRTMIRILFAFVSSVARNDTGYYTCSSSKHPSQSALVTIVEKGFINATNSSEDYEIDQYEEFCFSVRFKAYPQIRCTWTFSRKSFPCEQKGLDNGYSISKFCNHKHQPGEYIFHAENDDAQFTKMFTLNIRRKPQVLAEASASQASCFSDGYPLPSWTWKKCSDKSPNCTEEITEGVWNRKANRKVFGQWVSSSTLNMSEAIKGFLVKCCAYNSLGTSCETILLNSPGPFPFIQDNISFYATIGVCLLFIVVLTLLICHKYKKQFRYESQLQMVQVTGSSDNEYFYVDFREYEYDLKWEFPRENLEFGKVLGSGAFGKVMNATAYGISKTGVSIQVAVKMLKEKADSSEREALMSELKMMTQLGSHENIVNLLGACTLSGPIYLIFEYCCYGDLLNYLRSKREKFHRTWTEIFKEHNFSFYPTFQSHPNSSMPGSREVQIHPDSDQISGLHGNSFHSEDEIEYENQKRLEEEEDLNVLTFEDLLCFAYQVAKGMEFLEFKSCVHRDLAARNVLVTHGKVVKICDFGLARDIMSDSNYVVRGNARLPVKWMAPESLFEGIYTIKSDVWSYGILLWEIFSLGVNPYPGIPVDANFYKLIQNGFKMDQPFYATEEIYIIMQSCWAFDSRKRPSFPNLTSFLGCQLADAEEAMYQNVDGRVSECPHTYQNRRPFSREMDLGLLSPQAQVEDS
From the text: Data points are an average of triplicate samples. […] Leukemia.

[6] = biological target: T3, isolated kinase domain of the human FLT3 receptor (a.a. 571-993) (Homo sapiens, UniProt P36888); experiment: FLT3 fluorescence polarization kinase assay; format: biochemical; settings: 150 uM ATP; uncertainty ±10%; read-out: Flt-3 IC50
T3 construct: human FLT3 receptor (a.a. 571-993)
T3 sequence (P36888 571-993): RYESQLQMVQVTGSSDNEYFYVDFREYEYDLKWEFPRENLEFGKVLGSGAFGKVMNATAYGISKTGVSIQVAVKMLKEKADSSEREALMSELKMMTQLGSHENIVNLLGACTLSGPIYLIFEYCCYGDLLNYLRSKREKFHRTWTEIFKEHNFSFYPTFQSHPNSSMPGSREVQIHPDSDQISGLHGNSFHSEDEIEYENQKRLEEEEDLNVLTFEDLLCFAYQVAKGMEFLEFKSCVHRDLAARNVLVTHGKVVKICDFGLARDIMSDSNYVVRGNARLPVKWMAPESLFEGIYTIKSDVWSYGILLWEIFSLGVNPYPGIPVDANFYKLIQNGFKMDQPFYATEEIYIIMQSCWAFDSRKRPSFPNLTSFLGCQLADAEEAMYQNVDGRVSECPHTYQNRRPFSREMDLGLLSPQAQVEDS
From the text: The FLT3 FP assay utilizes the fluorescein-labeled phosphopeptide and the anti-phosphotyrosine antibody included in the Panvera Phospho-Tyrosine Kinase Kit (Green) supplied by Invitrogen. When FLT3 phosphorylates polyGlu4Tyr, the fluorescein-labeled phosphopeptide is displaced from the anti-phosphotyrosine antibody by the phosphorylated poly Glu4Tyr, thus decreasing the FP value. […] The kinase reaction is stopped with the addition of EDTA. The fluorescein-labeled phosphopeptide and the anti-phosphotyrosine antibody are added and incubated for 30 minutes at room temperature.
Data points are an average of triplicate samples. Inhibition and IC50 data analysis was done with GraphPad Prism using a non-linear regression fit with a multiparamater, sigmoidal dose-response (variable slope) equation.

[7] = test system: Baf3-FLT3 cells stimulated with FLT ligand; experiment: 72-hour cell proliferation assay, single agents and FTI/FLT3 inhibitor combinations, Baf3-FLT3; format: cell-based, murine; settings: with single sub-IC50 dose of FLT3 inhibitor Compound A (100 nM)
Experimental: as §1, §2, §3

SMILES: CN(C)CC(=O)N1CCC(c2ccc(NC(=O)c3nc(C#N)c[nH]3)c(C3=CCCCC3)c2)CC1 [Compound 38, 4-Cyano-1H-imidazole-2-carboxylic acid {2-cyclohex-1-enyl-4-[1-(2-dimethylamino-acetyl)-piperidin-4-yl]-phenyl}-amide]
- IC50 [1]: 13.8 nM
- tumor growth compared to vehicle-treated control group ([2]; 10 mg/kg b.i.d. oral): no significant growth delay
- final tumor weight ([2]; 10 mg/kg dose): no significant decrease
- tumor regression, decrease versus starting mean tumor volume on Day 1 ([2]; 50 mg/kg b.i.d. oral): 98%
- inhibition of mean tumor volume compared to vehicle-treated group ([2]; 50 mg/kg b.i.d. oral): ~100%
- final tumor weight ([2]; 50 mg/kg dose): no measurable tumor mass detectable
- tumor regression, decrease versus starting mean tumor volume on Day 1 ([2]; 100 mg/kg b.i.d. oral): 93%
- inhibition of mean tumor volume compared to vehicle-treated group ([2]; 100 mg/kg b.i.d. oral): ~100%
- mice with palpable, measurable tumor on study day 34 ([2]; 100 mg/kg, dosing stopped on Day 12, tumor allowed to re-grow): 6/12
- body weight compared to starting body weight ([2]; across all dose groups): no significant loss of body weight
- inhibition of tumor volume compared to vehicle-treated control group [3]: 76%
- level of FLT3 phosphorylation in MV4-11 tumors ([4]; single dose 10 mg/kg po): partial reduction
- level of FLT3 phosphorylation in MV4-11 tumors ([4]; single dose 100 mg/kg po): biologically significant reduction

- IC50 [5]: 1300 nM
- IC50 [6]: 260 nM
SMILES: CN1CCN(c2ccc(NC(=O)c3ccc(C#N)o3)c(C3=CCCCC3)c2)CC1 [Compound 11, 5-Cyano-furan-2-carboxylic acid [2-cyclohex-1-enyl-4-(4-methyl-piperazin-1-yl)-phenyl]-amide]

SMILES: Cn1cncc1[C@@](N)(c1ccc(Cl)cc1)c1ccc2c(c1)c(-c1cccc(Cl)c1)cc(=O)n2C (single isomer, unassigned) [Tipifarnib, reference compound]
- increase in potency of Tipifarnib [7]: more than 3 fold
